Where two headings read alike, the source gives them in different places.
Assays:
[1] = system: murine B16 melanoma cells; test: Cell growth assay, murine B16 melanoma cells (CellTiter 96 Aqueous One, 48 h); type: cell-based; settings: for suppression of the growth of B16 cells: P>0.05
Protocol: (§1) Cultures of cells, seeded in 0.1 mL medium with a density of 1,500 DU145 cells/well or 1,200 B16 cells/well in a 96-well plate, were incubated for 24 h at 37° C. in a humidified atmosphere of 5% CO2. At 24 h, the medium was decanted from each well and replaced with 0.1 mL fresh medium containing different concentrations of the test agents. Incubation continued for additional 48 h (B16) or 72 h (DU145). Following a quick rinse with 0.1 mL Hank's Balanced Salt Solution (HBSS), the 48-h (B16) or 72-h (DU145) cell populations were determined by adding 20 μL of CellTiter 96® Aqueous One Solution (Promega, Madison, Wis.) to each well; plates were held in the dark at 37° C. for 2 h and then read with a Synergy HT multi-plate reader (Biotek Instruments, Inc., Winooski, Vt.) and analyzed using the Gen5™ software (Biotek Instruments, Inc.). Absorbances from wells containing cell-free medium were used as baselines and were deducted from those of other cell-containing wells. The IC50 value is the concentration of xanthorrhizol required to suppress the net increase in cell number by 50%.
(§2) One-way analysis of variance (ANOVA) and Kruskal-Wallis tests were performed to assess the differences between groups using Prism® 7.0 software (GraphPad Software Inc., San Diego, Calif.). Differences in means were analyzed by Dunnett's multiple comparison test unless specified otherwise. Values were mean±standard error of mean (SEM). Levels of significance were designated as P<0.05. […] The constant-ratio combination design of xanthorrhizol and d-δ-tocotrienol in our study allowed automated creation of the classic isobologram by using the CompuSyn software. CI values lower than 1 indicate synergistic effect of the agents (Tallarida 2006).
(§3) Murine B16 melanoma cells were cultured in Dulbecco's Modified Eagle's Medium (DMEM) supplemented with 10% FBS, 1% penicillin-streptomycin and 0.8% gentamicin. For optimal growth, cells were incubated at 37° C. in a humidified atmosphere of 5% CO2. d-δ-Tocotrienol and xanthorrhizol were pre-dissolved in ethyl alcohol. All treated cultures contained 0.1% (v/v) of ethyl alcohol.

[2] = system: murine B16 melanoma cells; test: Cell cycle analysis by flow cytometry (propidium iodide DNA content), B16 cells; type: cell-based; settings: 24-h; for percentage of cells at the G1 phase: mean±SEM, control 56.1±1.6%, no significant change
Protocol: Cells were seeded in 25 cm^2 flasks (Becton Dickinson Labware, Franklin Lakes, N.J.) at 1×10^6 cells (B16) per flask with 3 mL medium/flask and incubated for 24 h. Medium was then decanted and cultures were replenished with fresh medium containing the test agents that had been dissolved in ethyl alcohol. Following an additional 24-h incubation, adherent cells were harvested by trypsinization and pelleted by low speed centrifugation at 500 g for 5 min. Cell pellets were gently fixed in 1 mL of 70% ethanol-PBS mixture at −20° C. overnight and washed with PBS before 5×10^5 cells were re-suspended in 500 μL of PBS containing freshly prepared propidium iodide and RNase A (Roche Diagnostics, Indianapolis, Ind.) and incubated at 37° C. in the dark for 30 min as described (Yeganehjoo, DeBose-Boyd et al. 2017). Aliquots of 200 μL of the stained cells were analyzed for DNA content using a BD LSR Fortessa flow cytometer (BD Biosciences, San Jose, Calif.). The distribution of cells in the G1 and S phases of the cell cycle was determined using MultiCycle AV software (Phoenix Flow Systems, San Diego, Calif.).
as §3
The effect of blends of xanthorrhizol and d-δ-tocotrienol were evaluated on the cell cycle distribution of murine B16 melanoma cells (FIG. 4). At 0-h as baseline, the percentages of cells in the G1, S, and G2 phases of cell cycle were 54.1±0.7%, 27.6±0.4%, and 18.3±0.8% (mean±SEM), respectively. Following a 24-h incubation […], these percentages were relatively stable for the control group (56.1±1.6%, 32.1±0.6% and 11.7±1.9% for G1, S and G2 phases, respectively).

[3] = system: human DU145 prostate carcinoma cells; test: Cell growth assay, human DU145 prostate carcinoma cells (CellTiter 96 Aqueous One, 72 h); type: cell-based; settings: for concentration achieving 90% of growth suppression: individual agent (FIG. 6)
Protocol: as §1, §2
Human DU145 prostate carcinoma cells were cultured in Roswell Park Memorial Institute ([…]) medium supplemented with 10% Fetal Bovine Serum (FBS; Fisher Scientific, Houston, Tex.), 1% penicillin-streptomycin (Fisher Scientific), and 0.8% gentamicin (Fisher Scientific).

[4] = system: murine B16 melanoma cells; settings: McAnally, Gupta et al. 2007, read-out: previous reported IC50, concentration required to elicit 50% of growth inhibition; cited from earlier work
[5] = 16.25 μmol/L xanthorrhizol, versus control

Structure (SMILES): CC(C)=CCC/C(C)=C/CC/C(C)=C/CC[C@]1(C)CCc2cc(O)cc(C)c2O1 [d-δ-tocotrienol]
- suppression of the growth of B16 cells ([1]; 10 μmol/L d-δ-tocotrienol applied individually): ~12%
- suppression of the proliferation of murine B16 melanoma cells ([1]; d-δ-tocotrienol 0-40 μmol/L): concentration-dependent suppression
- percentage of cells at the G1 phase ([2]; 5 μmol/L d-δ-tocotrienol): 59.2±1.3%
- concentration achieving 90% of growth suppression ([3]; DU145 cells): 32 µmol/L
- IC50 [4]: 14 µM

Structure (SMILES): CC(C)=CCC[C@@H](C)c1ccc(C)c(O)c1 [xanthorrhizol]
- suppression of the growth of B16 cells ([1]; 16.25 μmol/L xanthorrhizol applied individually): approximately 15%
- IC50 ([1]; B16 cells, 48 h incubation, read-out: IC50, concentration required to elicit 50% of growth inhibition): 65 µM
- suppression of the proliferation of murine B16 melanoma cells ([1]; xanthorrhizol 0-200 μmol/L): concentration-dependent suppression
- G1/S ratio, indicator of cell cycle arrest [2, 5]: significantly higher
- percentage of cells at the S phase [2, 5]: decreased
- percentage of cells at the G1 phase ([2]; 16.25 μmol/L xanthorrhizol): 59.5±0.7%
- IC50 ([3]; DU145 cells, 72 h incubation, read-out: IC50, suppression of the proliferation of DU145 cells): 101 µM
- concentration achieving 90% of growth suppression ([3]; DU145 cells): 182 µmol/L
- suppression of the proliferation of human DU145 prostate carcinoma cells ([3]; xanthorrhizol 0-200 μmol/L): concentration-dependent suppression

Reference: patent publication US10894021B2, “Compositions of xanthorrhizol and tocochromanol (tocotrienol), and methods of use” (American River Nutrition, LLC, priority 2017, dated 2021)
